Results taken from US12673935B2, “Pyrimidine derivative, and preparation method therefor and use thereof” (CGENETECH (SUZHOU, CHINA) CO., LTD., priority 2020, dated 2026).

Tests used:
CDK4/human cyclin D1 = CDK4/human cyclin D1 (Homo sapiens, UniProt P11802); assay: Determination of activity of CDK4 kinase (Caliper mobility shift); type: biochemical; details: 25 μM ATP, 5 nM enzyme, 25° C. 6 hours; read-out: CDK4/CycD1 IC50
Procedure: The activity of CDK4 kinase in vitro was tested by the following method: • Final buffer: • 100 mM 4-hydroxyethyl piperazine ethanesulfonic acid, pH 7.5; • 0.1% bovine serum albumin; • 0.01% Triton X-100; • 1 mM dithiothreitol; • 5 mM magnesium chloride; • 10 μM sodium orthovanadate; • 10 μM sodium P-glycerophosphate; • 25 μM ATP; • 1% DMSO (from the compound to be tested); • Substrate Peptide: 1 μM FAM-[…]-NH2 segment, wherein FAM is 5-carboxyfluorescein; • 5 nM CDK4/human cyclin D1.
(§1) 5 μL of buffer, 0.1 μL of compound to be tested (DMSO, 100 times the highest concentration) and 5 μL of substrate peptide buffer were added to a 384-well plate. The reaction was terminated with EDTA after culturing at 25° C. for 6 hours. Electrophoresis reading was started (Caliper LabChip® 3000 Drug Discovery System, blue laser (480 nm) for excitation, green CCD (520 nm) for detection of CCD2).

CDK6/human cyclin D3 = target: T1, CDK6/human cyclin D3 (Homo sapiens, UniProt Q00534); assay: Determination of activity of CDK6 kinase (Caliper mobility shift); type: biochemical; details: 300 μM ATP, 2 nM enzyme, 25° C. 3 hours; read-out: CDK6/CycD3 IC50
T1 construct: purchased Carna 04-107
Procedure: The activity of CDK6 kinase in vitro was tested by the following method: • 2 nM CDK6/human cyclin D3 (Carna, No. 04-107) • Final buffer: • 100 mM 4-hydroxyethyl piperazine ethanesulfonic acid, pH 7.5; • 0.1% bovine serum albumin; • 0.01% Triton X-100; • 1 mM dithiothreitol; • 5 mM magnesium chloride; • 10 μM sodium orthovanadate; • 10 μM sodium P-glycerophosphate; • 300 μM ATP; • 1% DMSO (from the compound to be tested); • Substrate peptide: Dyrktide;
as §1, with “3” for “6”

CDK2/human cyclin E = CDK2/human cyclin E (Homo sapiens, UniProt P24941); assay: Determination of activity of CDK2 kinase (Caliper mobility shift); type: biochemical; details: 10 μM ATP, 0.1 nM enzyme, 25° C. 6 hours; read-out: CDK2/CycE IC50
Procedure: The activity of CDK2 kinase in vitro was tested by the following method: • Final buffer: • 100 mM 4-hydroxyethyl piperazine ethanesulfonic acid, pH 7.5; • 0.1% bovine serum albumin; • 0.01% Triton X-100; • 1 mM dithiothreitol; • 5 mM magnesium chloride; • 10 μM sodium orthovanadate; • 10 μM sodium P-glycerophosphate; • 10 μM ATP; • 1% DMSO (from the compound to be tested); • Substrate Peptide: 1 μM FAM-[…]-OH, wherein FAM is 5-carboxyfluorescein; • 0.1 nM CDK2/human cyclin E.
as §1

MDA-MB-468 cells = assay: Determination of activity of MDA-MB-468 cells (CellTiter-Glo); type: cell-based; details: Homo sapiens, MDA-MB-468, 120 h, 5 days culture
Procedure: • MDA-MB-468 (ATCC No. HTB-132); • RPMI 1640 (Invitrogen No. 22400089); • FBS (Hyclone No. SV30087.03); • Pen Strep (Hyclone No. SV30010); • CellTiter-Glo (Promega No. G7573); • Medium: 89% RPMI 1640, 10% FBS and 1% Pen Strep;
300 MDA-MB-468 cells and 50 μL of medium were inoculated in a plate with 100 μL of PBS buffer added, which was then cultured for 24 hours at 37° C./5% CO2, then 250 nL of samples, which were taken from the compounds to be tested at ten test points and diluted with four times DMSO, were added to the plate wells and cultured for 5 days at 37° C./5% CO2, then 25 μL of CellTiter-Glo was added to each plate well, followed by centrifugation by rotating (1000 rpm) for 15 seconds, and vibration mixing (400 rpm) for 10 minutes, the microplate reader Envision was started to read.

T1 sequence (Q00534 whole entry): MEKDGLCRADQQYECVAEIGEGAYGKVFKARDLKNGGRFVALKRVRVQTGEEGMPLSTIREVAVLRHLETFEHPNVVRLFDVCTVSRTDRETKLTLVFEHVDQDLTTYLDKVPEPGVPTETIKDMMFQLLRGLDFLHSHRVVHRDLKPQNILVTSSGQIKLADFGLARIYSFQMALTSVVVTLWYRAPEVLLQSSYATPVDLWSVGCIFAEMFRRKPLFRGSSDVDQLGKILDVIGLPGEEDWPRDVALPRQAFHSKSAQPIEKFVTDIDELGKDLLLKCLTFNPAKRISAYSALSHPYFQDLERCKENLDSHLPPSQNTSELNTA
T1 sequence (P30281 whole entry partner): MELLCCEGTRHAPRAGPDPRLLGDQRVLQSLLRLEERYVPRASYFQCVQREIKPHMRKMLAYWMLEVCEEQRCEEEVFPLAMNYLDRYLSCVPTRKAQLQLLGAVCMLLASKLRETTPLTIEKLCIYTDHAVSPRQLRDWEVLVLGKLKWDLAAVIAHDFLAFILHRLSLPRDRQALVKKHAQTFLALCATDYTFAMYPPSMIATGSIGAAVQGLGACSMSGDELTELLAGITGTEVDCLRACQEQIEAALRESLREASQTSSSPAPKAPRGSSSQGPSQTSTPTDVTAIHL
Chain of CDK4/human cyclin D1 (P11802 whole entry): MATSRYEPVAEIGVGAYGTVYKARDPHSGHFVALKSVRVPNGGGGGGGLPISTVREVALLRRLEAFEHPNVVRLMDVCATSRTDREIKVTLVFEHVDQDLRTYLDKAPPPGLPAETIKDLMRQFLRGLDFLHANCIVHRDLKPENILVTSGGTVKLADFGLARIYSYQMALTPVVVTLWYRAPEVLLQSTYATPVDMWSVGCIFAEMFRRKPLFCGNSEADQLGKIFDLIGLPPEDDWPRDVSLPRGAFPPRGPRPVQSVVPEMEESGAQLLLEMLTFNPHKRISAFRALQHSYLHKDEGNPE
Chain of CDK4/human cyclin D1 (P24385 whole entry partner): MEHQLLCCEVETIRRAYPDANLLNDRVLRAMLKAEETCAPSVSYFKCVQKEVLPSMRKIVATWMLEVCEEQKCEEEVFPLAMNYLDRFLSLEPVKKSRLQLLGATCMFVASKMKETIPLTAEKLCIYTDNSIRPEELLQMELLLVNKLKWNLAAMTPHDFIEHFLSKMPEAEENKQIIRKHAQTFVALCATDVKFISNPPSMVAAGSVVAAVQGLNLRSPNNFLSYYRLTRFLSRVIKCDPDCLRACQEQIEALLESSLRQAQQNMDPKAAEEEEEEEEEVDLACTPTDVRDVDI

| Compound | IC50 (CDK4/human cyclin D1) | IC50 (CDK6/human cyclin D3) | IC50 (CDK2/human cyclin E) | IC50 (MDA-MB-468 cells) |
| --- | --- | --- | --- | --- |
| CCN1CCN(Cc2ccc(Nc3ncc(F)c(-c4cc(F)c5nc(CF)n(C(C)C)c5c4)n3)nc2)CC1 [Compound 1978] | 2.6 nM | 9.8 nM | 459 nM | 1150 nM |
| CC(C)n1c(CF)nc2c(F)cc(-c3nc(Nc4ccc(CN5CCC(N(C)CCO)CC5)cn4)ncc3F)cc21 [Compound 1995] | 1.75 nM | 10.1 nM | 6.2 nM | 186 nM |
| Cc1nc2c(F)cc(-c3nc(Nc4ccc(N5CCC(N(C)CCO)CC5)cn4)ncc3F)cc2n1C(C)C [Compound 1963] | 1.78 nM | 1 nM | 101 nM | 459 nM |
| CNC1CCN(c2ccc(Nc3ncc(F)c(-c4cc(F)c5nc(C)n(C(C)C)c5c4)n3)nc2)CC1 [Compound 1967] | 0.17 nM | 1.23 nM | 122 nM | 682 nM |
| CC(C)n1c(CF)nc2c(F)cc(-c3nc(Nc4ccc(N5CCC(N(C)CCO)CC5)cn4)ncc3F)cc21 [Compound 1990] | 1.54 nM | 4.8 nM | 5.3 nM | 276 nM |
| CC(C)n1c(CF)nc2c(F)cc(-c3nc(Nc4ccc(N5CCC(N(C)C)CC5)cn4)ncc3F)cc21 [Compound 1984] | 1.25 nM | 3.9 nM | 231 nM | 344 nM |
| CC(C)n1c(CF)nc2c(F)cc(-c3nc(Nc4ccc(CN5CCC(N(C)C)CC5)cn4)ncc3F)cc21 [Compound 1975] | 1.55 nM | 6.7 nM | 8.2 nM | 457 nM |

More lines, in order of falling IC50 (CDK4/human cyclin D1), values ahead:

| IC50 (CDK4/human cyclin D1) | IC50 (CDK6/human cyclin D3) | IC50 (CDK2/human cyclin E) | IC50 (MDA-MB-468 cells) | Compound |
| --- | --- | --- | --- | --- |
| 1.4 nM | 8.6 nM | 313 nM | 126 nM | Cc1nc2c(F)cc(-c3nc(Nc4ccc(CN5CCC(N(C)CCO)CC5)cn4)ncc3F)cc2n1C(C)C [Compound 1964] |
| 1.2 nM | 1.8 nM | 95 nM | 573 nM | Cc1nc2c(F)cc(-c3nc(Nc4ccc(N5CCN(CCO)CC5)cn4)ncc3F)cc2n1C(C)C [Compound 1986] |
| 1.2 nM | 5.9 nM | 355 nM | 345 nM | Cc1nc2c(F)cc(-c3nc(Nc4ccc(N5CCN(CC(C)O)CC5)cn4)ncc3F)cc2n1C(C)C (centres unmarked) [Compound 1987] |
| 0.98 nM | 3 nM | 128 nM | 454 nM | CCN1CCN(c2ccc(Nc3ncc(F)c(-c4cc(F)c5nc(CF)n(C(C)C)c5c4)n3)nc2)CC1 [Compound 1985] |
| 0.83 nM | 4.1 nM | 163 nM | 1390 nM | Cc1nc2c(F)cc(-c3nc(Nc4ccc(CN5CCN(CCO)CC5)cn4)ncc3F)cc2n1C(C)C [Compound 1979] |
| 0.75 nM | 1.1 nM | 92 nM | 529 nM | COCCN1CCN(c2ccc(Nc3ncc(F)c(-c4cc(F)c5nc(C)n(C(C)C)c5c4)n3)nc2)CC1 [Compound 1988] |
| 0.67 nM | 8.7 nM | 82 nM | 485 nM | CCN1CCN(Cc2ccc(Nc3ncc(F)c(-c4cc(F)c5nc(CO)n(C(C)C)c5c4)n3)nc2)CC1 [Compound 1994] |
